Results: ChEMBL document CHEMBL1141197, “Interaction of papain-like cysteine proteases with dipeptide-derived nitriles” (J Med Chem, 2005)
Where a SMILES comes first, the peptide text is derived from it. The star is where a group is joined. Boc = CC(C)(C)OC(=O)*

Assays:
Cathepsin S = Cathepsin S (Homo sapiens, UniProt P25774); assay: Inhibitory activity against human cathepsin S using Z-Val-Val-Arg-NHMec substrate
Papain = biological target: T1, Papain (Carica papaya, UniProt P00784); assay: Inhibitory activity against papain using Z-Phe-Arg-NHNp substrate
T1 sequence (P00784 whole entry): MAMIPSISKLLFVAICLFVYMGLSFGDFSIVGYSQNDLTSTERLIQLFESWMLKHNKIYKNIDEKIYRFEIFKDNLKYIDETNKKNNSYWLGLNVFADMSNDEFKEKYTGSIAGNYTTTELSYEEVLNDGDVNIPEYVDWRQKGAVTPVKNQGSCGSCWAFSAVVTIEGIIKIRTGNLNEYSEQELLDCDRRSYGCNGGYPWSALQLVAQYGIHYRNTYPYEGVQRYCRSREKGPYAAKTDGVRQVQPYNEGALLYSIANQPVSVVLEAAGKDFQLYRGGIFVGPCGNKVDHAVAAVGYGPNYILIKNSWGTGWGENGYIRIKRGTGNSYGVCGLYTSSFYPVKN

Cathepsin K = biological target: T2, Cathepsin K (Homo sapiens, UniProt P43235); assay: Inhibitory activity against human cathepsin K using Z-Leu-Arg-NHMec substrate
T2 sequence (P43235 whole entry): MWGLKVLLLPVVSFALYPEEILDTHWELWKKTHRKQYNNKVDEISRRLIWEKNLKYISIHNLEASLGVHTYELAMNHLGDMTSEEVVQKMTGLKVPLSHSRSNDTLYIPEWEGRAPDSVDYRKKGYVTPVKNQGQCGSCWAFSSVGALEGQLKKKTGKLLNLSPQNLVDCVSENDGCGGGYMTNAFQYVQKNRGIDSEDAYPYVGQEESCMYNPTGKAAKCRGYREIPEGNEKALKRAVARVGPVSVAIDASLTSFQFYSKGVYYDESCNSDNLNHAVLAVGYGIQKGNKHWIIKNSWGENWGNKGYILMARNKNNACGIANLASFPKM

Procathepsin L [1] = biological target: Procathepsin L (Bos taurus, UniProt P25975); assay: Inhibitory activity against bovine cathepsin L using Z-Phe-Arg-NHMec substrate
Procathepsin L [2] = biological target: Procathepsin L (Homo sapiens, UniProt P07711); assay: Inhibitory activity against human cathepsin L using Z-Phe-Arg-NHMec substrate
Chain of Procathepsin L (Homo sapiens, UniProt P07711) (P07711 whole entry): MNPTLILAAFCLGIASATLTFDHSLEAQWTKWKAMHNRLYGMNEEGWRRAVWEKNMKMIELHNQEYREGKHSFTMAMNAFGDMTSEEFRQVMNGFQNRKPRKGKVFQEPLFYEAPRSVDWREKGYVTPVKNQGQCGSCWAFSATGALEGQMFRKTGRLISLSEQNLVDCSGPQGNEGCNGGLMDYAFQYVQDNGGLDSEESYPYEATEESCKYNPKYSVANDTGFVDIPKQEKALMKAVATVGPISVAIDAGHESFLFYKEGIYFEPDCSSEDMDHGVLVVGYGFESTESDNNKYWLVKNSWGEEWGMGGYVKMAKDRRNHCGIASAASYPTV

Chain of Procathepsin L (Bos taurus, UniProt P25975) (P25975 whole entry): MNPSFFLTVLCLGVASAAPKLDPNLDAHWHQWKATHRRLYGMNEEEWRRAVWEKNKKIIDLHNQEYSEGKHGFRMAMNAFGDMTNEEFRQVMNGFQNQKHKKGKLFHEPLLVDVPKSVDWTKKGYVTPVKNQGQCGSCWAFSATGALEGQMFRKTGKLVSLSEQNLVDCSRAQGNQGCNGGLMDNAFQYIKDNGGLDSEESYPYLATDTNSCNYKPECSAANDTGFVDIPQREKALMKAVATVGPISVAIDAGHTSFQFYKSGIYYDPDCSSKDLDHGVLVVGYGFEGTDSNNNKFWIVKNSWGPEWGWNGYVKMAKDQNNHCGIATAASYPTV
Chain of Cathepsin S (P25774 whole entry): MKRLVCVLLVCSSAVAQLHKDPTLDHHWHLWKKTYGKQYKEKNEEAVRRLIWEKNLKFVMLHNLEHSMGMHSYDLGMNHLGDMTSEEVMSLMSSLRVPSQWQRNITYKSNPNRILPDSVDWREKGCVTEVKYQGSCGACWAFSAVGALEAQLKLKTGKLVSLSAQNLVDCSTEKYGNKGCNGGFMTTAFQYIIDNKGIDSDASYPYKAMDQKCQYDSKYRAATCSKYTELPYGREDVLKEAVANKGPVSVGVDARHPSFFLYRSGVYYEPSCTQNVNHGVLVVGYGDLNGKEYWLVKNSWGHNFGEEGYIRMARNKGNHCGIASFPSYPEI

Row | SMILES | Ki (Cathepsin S) [nM] | Ki (Papain) [nM] | Ki (Cathepsin K) [nM] | Ki (Procathepsin L [1]) [nM] | Ki (Procathepsin L [2]) [nM]
1 | CC(C)(C)OC(=O)N[C@H](C(=O)NCC#N)c1ccccc1 | 1700 | 83000 | 90000 | 29000 | 
2 | CC(C)(C)OC(=O)N[C@@H](Cc1c(F)c(F)c(F)c(F)c1F)C(=O)NCC#N | 15000 | 14000 | > 100000 | 2500 | 
3 | CC(C)(C)OC(=O)N[C@@H](Cc1cccs1)C(=O)NCC#N | 270 | 190 | 1200 | 1600 | 
4 | C[C@H](NC(=O)OC(C)(C)C)C(=O)NCC#N | 292000 | 22000 | 136000 | > 100000 | 
5 | CC(C)(C)OC(=O)N[C@@H](Cc1ccc(Br)cc1)C(=O)NCC#N | 190 | 29 | 28000 | 630 | 
6 | CN(CC#N)C(=O)[C@H](Cc1ccccc1)NC(=O)OC(C)(C)C | > 100000 | > 100000 | > 100000 | > 100000 | 
7 | CC(C)(C)OC(=O)N[C@H](Cc1ccccc1)C(=O)NCC#N | 46000 | 41000 | > 100000 |  | 
8 | CC(C)(C)OC(=O)N[C@@H](Cc1ccc(F)cc1)C(=O)NCC#N | 590 | 270 | 13000 | 640 | 
9 | N#CCNC(=O)[C@H](Cc1ccccc1)NC(=O)OCc1ccccc1 | 510 | 360 | 260 | 180 | 230
10 | CC(C)(C)OC(=O)N[C@@H](CC1CCCCC1)C(=O)NCC#N | 44 | 2200 | 5300 | 1100 | 
11 | CC(C)(C)OC(=O)N[C@@H](CC1CC1)C(=O)NCC#N | 650 | 13000 | 3300 | 47000 | 
12 | N#CCNC(=O)[C@H](Cc1ccccc1)NC(=O)c1ccccc1 | 77 | 62 | 1500 | 230 | 
13 | CC(C)(C)OC(=O)N[C@@H](Cc1cccc(Br)c1)C(=O)NCC#N | 340 | 330 | 6500 | 270 | 
14 | CC(C)(C)OC(=O)N[C@@H](Cc1ccc(O)cc1)C(=O)NCC#N | 970 | 190 | 30000 | 400 | 
15 | CC(C)(C)OC(=O)N[C@@H](Cc1cccc(F)c1)C(=O)NCC#N | 860 | 500 | 6300 | 700 | 
16 | CC(C)(C)OC(=O)N[C@@H](Cc1cccc(-c2ccccc2)c1)C(=O)NCC#N | 270 | 1200 | 26000 | 430 | 
17 | CC(C)(C)OC(=O)N[C@@H](Cc1c[nH]c2ccccc12)C(=O)NCC#N | 240 | 7600 | 29000 | 350 | 430
18 | CC(C)(C)OC(=O)NN(Cc1ccccc1)C(=O)NCC#N | > 50000 | 725000 | > 100000 | > 100000 | 
19 | CSCC[C@H](NC(=O)OC(C)(C)C)C(=O)NCC#N | 660 | 650 | 730 | 19000 | 
20 | CCCC[C@H](NC(=O)OC(C)(C)C)C(=O)NCC#N | 550 | 1570 | 1270 | 19000 | 
21 | CC(C)(C)OC(=O)N[C@@H](Cc1csc2ccccc12)C(=O)NCC#N | 300 | 7400 | 34000 | 320 | 290
22 | CCC[C@H](NC(=O)OC(C)(C)C)C(=O)NCC#N | 900 | 750 | 1100 | 22000 | 
23 | CC(C)(C)OC(=O)N[C@@H](Cc1ccco1)C(=O)NCC#N | 2800 | 1200 | 4100 | 14000 | 
24 | CC(C)(C)OC(=O)N[C@@H](Cc1ccccc1)C(=O)NCC=O (Boc-Phe-Gly-aldehyde) | 25 | 15 | 74 | 22 | 
